The test system of data set [1] is bleomycin-induced scleroderma. As to the kind of experiment: In vivo bleomycin induced scleroderma model. The note with it: for skin collagen content compared to the vehicle-treated group: skin samples Day 28. Set-up: species or system C57BL/6 mice. The protocol: In Vivo Bleomycin Induced Scleroderma Model
Adult male C57BL/6 mice, aged 8-10 weeks, were assigned to groups and allowed to acclimatise for a week. On Day −1, the back skin of the animals was shaved. From Day 0, animals were administered with 100 μl of a 1 mg/ml solution of bleomycin sulphate in phosphate buffered saline (PBS) by intradermal injection in the shaved skin. Injections were repeated in a one square centimeter area every other day for four weeks. A group of ten animals (Control group) was injected with an identical volume of PBS. Animals were weighed at the beginning of the experiment on Day 0 and then twice weekly throughout the study. At the end of the experiment, on Day 28, animals were culled and samples of back skin were taken for further analysis. All groups were n=10; the vehicle was distilled water and the administration volume was 10 ml/kg for oral gavage (p.o.); administration volume was 25 μl for topical application.
Bodyweights were graphed along with the standard error of the mean (SEM); Skin samples (two punch biopsies per animal, 4 mm in diameter each) samples were hydrolyzed and hydroxyproline content of the samples was determined from analysis in a semi-automated process using a continuous flow analyzer. Autoanalyser readings were calibrated against hydroxyproline standards and collagen content calculated.

The next data set relates to FPP-induced hyperalgesia. As to the kind of experiment: In vivo farnesyl pyrophosphate-induced inflammatory (hyperalgesia) model, Randall-Selitto. The note with it: Rattus norvegicus, adult male rats, read-out: In vivo efficacy (minimum effective dose (MED). The protocol: In Vivo Farnesyl Pyrophosphate-Induced Inflammatory Model
The FPP-induced hyperalgesia model is a pharmacodynamic rat model which involves inducing pain by injecting FPP, an agonist of LPA5 receptor, into the plantar surface of the hindpaw.
Withdrawal responses were reassessed at 30 and 90 minutes after injection of FPP in the ipsilateral paw.

The next data set deals with LPA5 receptor (Homo sapiens (Human), UniProt Q9H1C0). Particulars: reported, Williams et al. (2009); cited from earlier work.

Counter-ions that a name gives are not always drawn. Like-named read-outs stand apart in the source and are kept apart here.

LPA5 receptor, sequence (Q9H1C0 whole entry): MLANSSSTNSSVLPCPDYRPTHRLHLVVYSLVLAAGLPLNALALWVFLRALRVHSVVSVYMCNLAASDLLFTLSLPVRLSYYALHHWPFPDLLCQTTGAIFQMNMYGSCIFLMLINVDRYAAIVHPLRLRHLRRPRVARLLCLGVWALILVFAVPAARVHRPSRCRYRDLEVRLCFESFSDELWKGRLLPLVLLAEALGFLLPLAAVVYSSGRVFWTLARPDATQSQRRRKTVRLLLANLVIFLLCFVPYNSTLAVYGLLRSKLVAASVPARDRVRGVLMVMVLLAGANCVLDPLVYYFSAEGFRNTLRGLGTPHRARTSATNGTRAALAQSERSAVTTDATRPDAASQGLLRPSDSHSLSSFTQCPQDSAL

For the compound `C[C@H]1C[C@H]2[C@@H]3CCC4=CC(=O)C=C[C@]4(C)[C@@]3(F)[C@@H](O)C[C@]2(C)[C@@]1(O)C(=O)CO` [Betamethasone, reference compound], the “skin collagen content compared to the vehicle-treated group” value in data set [1] (administered from Day 0) was “non-significant reduction”.
Consider `O=C(O)c1ccc(CN(CC(F)(F)F)C(=O)c2ccc(Oc3ccccc3F)cc2)cc1` [Example 3, 4-((4-(2-Fluorophenoxy)-N-(2,2,2-trifluoroethyl)benzamido)-methyl)benzoic acid], for which the minimal effective dose with FPP-induced hyperalgesia (route po) was not above 10 mg/kg.
For the compound `CC(C)CN(Cc1ccc(C(=O)O)cc1)C(=O)c1ccc(Oc2ccccc2F)cc1` [Example 4, 4-((4-(2-Fluorophenoxy)-N-isobutylbenzamido)methyl)benzoic acid], the minimal effective dose is 1 mg/kg with FPP-induced hyperalgesia (route ip) and not above 10 mg/kg in the data set on FPP-induced hyperalgesia (route po).
On to `O=C(O)c1ccc(CN(CC2CC2)C(=O)c2ccc(Oc3ccccc3F)cc2)cc1` [Example 5, 4-((N-(Cyclopropylmethyl)-4-(2-fluorophenoxy)benzamido)-methyl)benzoic acid], for which the minimal effective dose was 0.3 mg/kg in the data set on FPP-induced hyperalgesia (route ip) and not above 10 mg/kg in the data set with FPP-induced hyperalgesia (route po). For the same compound, the “bodyweight loss compared to the vehicle-treated group” value in data set [1] (30 mg/kg p.o. BID, treated groups) is given as “did not differ”. Moreover, the “skin collagen content compared to the vehicle-treated group” value was “significant reduction” in data set [1] (administered from Day 0) and “significant reduction” in data set [1] (administered from Day 14 to Day 28, 30 mg/kg p.o. BID).
As to `CC(C)CCN(Cc1ccc(C(=O)O)cc1)C(=O)c1ccc(Oc2ccccc2F)cc1` [Example 8, 4-((4-(2-Fluorophenoxy)-N-isopentylbenzamido)methyl)benzoic acid], in the data set with FPP-induced hyperalgesia (route po), the minimal effective dose is 100 mg/kg.
With `O=C(O)c1ccc(CN(Cc2ccccc2)C(=O)c2ccc(Oc3ccccc3F)cc2)cc1` [Example 11, 4-((N-Benzyl-4-(2-fluorophenoxy)benzamido)methyl)benzoic acid], the minimal effective dose with FPP-induced hyperalgesia (route po) is not above 10 mg/kg.
On the same count and under the same terms, under `Cc1ccccc1Oc1ccc(C(=O)N(Cc2ccccc2)Cc2ccc(C(=O)O)cc2)cc1` [Example 24, 4-((N-Benzyl-4-(o-tolyloxy)benzamido)methyl)benzoic acid] stands 30 mg/kg; under `COc1ccccc1Oc1ccc(C(=O)N(Cc2ccc(C(=O)O)cc2)CC(F)F)cc1` [Example 29, 4-((N-(2,2-Difluoroethyl)-4-(2-methoxyphenoxy)benzamido)-methyl)benzoic acid], 3 mg/kg.
Take `COc1ccccc1Oc1ccc(C(=O)N(Cc2ccc(C(=O)O)cc2)CC2CC2)cc1` [Example 31, 4-((N-(Cyclopropylmethyl)-4-(2-methoxyphenoxy)benzamido)-methyl)benzoic acid]: the minimal effective dose in the data set on FPP-induced hyperalgesia (route po) was 1 mg/kg.
In the case of `Cc1cccc(F)c1Oc1ccc(C(=O)N(Cc2ccc(C(=O)O)cc2)CC2CC2)cc1` [Example 40, 4-((N-(Cyclopropylmethyl)-4-(2-fluoro-6-methylphenoxy)-benzamido)methyl)benzoic acid], in the data set with FPP-induced hyperalgesia (route po), the minimal effective dose was 60 mg/kg.
For `CC(C)=CCC/C(C)=C/CC/C(C)=C/COP(=O)(O)OP(=O)(O)O` [Farnesyl pyrophosphate], the “selectivity over other LPA receptors” value at LPA5 receptor is listed as 3 fold.
With `Cc1ccc(NC(=O)c2ccc(CN3CCN(C)CC3)cc2)cc1Nc1nccc(-c2cccnc2)n1` [Imatinib, Imatinib mesylate, reference compound], the “skin collagen content compared to the vehicle-treated group” value in data set [1] (administered from Day 0) is on record as “non-significant reduction”.
